Reference: ChEMBL document CHEMBL5649166, “RIP3 induces apoptosis independent of pronecrotic kinase activity” (Mol Cell, 2014)
Calls of active or inactive are those of the source. The rule behind the calls is not given here.

Legend:
L929 [1] = experiment: Inhibition of TLR-3 induced necroptosis in mouse L929 cells assessed as increase in cell viability upto 10 uM incubated for 18 hrs in presence of poly(I:C) and zVAD by Cell Titer-Glo luminescent cell viability assay; type: functional, cell-based
SVEC4-10 [2] = experiment: Inhibition of DAI-induced necroptosis in wildtype MCMV infected mouse SVEC4-10 cells assessed as increase in cell viability at 10 uM incubated for 18 hrs by Cell Titer-Glo luminescent cell viability assay; type: functional, cell-based
SVEC4-10 [3] = experiment: Inhibition of DAI-induced necroptosis in MCMV M45mutRHIM infected mouse SVEC4-10 cells assessed as increase in cell viability at 10 uM incubated for 18 hrs in presence of zVAD by Cell Titer-Glo luminescent cell viability assay; type: functional, cell-based
3T3SA [4] = experiment: Induction of apoptosis in mouse 3T3SA cells assessed as cell death by measuring percent of PI positive cells incubated for 8 hrs by PI staining based flow cytometric analysis (reference value: 11.4%); type: toxicity
3T3SA [5] = experiment: Induction of apoptosis in mouse 3T3SA cells assessed as cell death by measuring percent of PI positive cells incubated for 8 hrs in presence of zVAD by PI staining based flow cytometric analysis (reference value: 11.4%); type: toxicity
3T3SA [6] = experiment: Induction of apoptosis in mouse 3T3SA cells transfected with RIP3 shRNA assessed as accumulation of cleaved caspase-3 by measuring percentage of cleaved caspase-3 positive cells measured after 8 hrs by immunoblot analysis (reference value: 11%); type: toxicity, cell-based
3T3SA [7] = experiment: Induction of apoptosis in mouse 3T3SA cells transfected with RIP3 shRNA at 10 uM incubated for 18 hrs by Cell Titer-Glo luminescent cell viability assay; type: toxicity, cell-based
L929 [8] = experiment: Induction of apoptosis in mouse L929 cells transfected with RIP3 shRNA at 10 uM incubated for 18 hrs by Cell Titer-Glo luminescent cell viability assay; type: toxicity, cell-based; settings: l929, 18 h
MEF [9] = experiment: Induction of apoptosis in RIP3-/- MEF cells incubated for 18 hrs by Cell Titer-Glo luminescent cell viability assay; type: toxicity, cell-based; settings: mouse
3T3SA [10] = experiment: Induction of apoptosis in mouse 3T3SA cells incubated for 18 hrs in presence of zYVAD by Cell Titer-Glo luminescent cell viability assay; type: toxicity, cell-based
3T3SA [11] = experiment: Induction of apoptosis in mouse 3T3SA cells assessed as cleaved caspase 8 accumulation incubated for 2.5 hrs by immunoblot analysis; type: toxicity, cell-based
3T3SA [12] = experiment: Inhibition of necroptosis in mouse 3T3SA cells incubated for 18 hrs in presence of Nec-1 by Cell Titer-Glo luminescent cell viability assay; type: functional, cell-based
MEF [13] = experiment: Inhibition of necroptosis in MEF cells expressing RIP1 K45A/K45A mutant incubated for 18 hrs by Cell Titer-Glo luminescent cell viability assay; type: functional, cell-based; settings: Mus musculus
MEF [14] = experiment: Induction of apoptosis in RIP-/- MEF cells incubated for 18 hrs by Cell Titer-Glo luminescent cell viability assay; type: toxicity, cell-based; settings: mouse
MEF [15] = experiment: Induction of apoptosis in […] MEF cells incubated for 18 hrs by Cell Titer-Glo luminescent cell viability assay; type: toxicity, cell-based; settings: mouse
MEF [16] = experiment: Induction of apoptosis in cFLIPL-/- MEF cells transfected with cFLIPL expressing retrovirus assessed as increase in caspase 8 proteolytic activity incubated for 4 hrs; type: toxicity, cell-based; settings: mouse
SVEC4-10 [17] = experiment: Induction of apoptosis in mouse SVEC4-10 cells transfected with M45mutRHIM incubated for 18 hrs by Cell Titer-Glo luminescent cell viability assay; type: toxicity, cell-based; settings: svec4-10, 18 h
3T3SA [18] = experiment: Induction of apoptosis in RIP3shRNA transfected mouse 3T3SA cells co-transfected with shRNA-resistant RIP3 pre-tranfected for 16 hrs followed by compound addition and measured after 18 hrs in presence of zVAD by Cell Titer-Glo luminescent cell viability assay; type: toxicity, cell-based
3T3SA [19] = experiment: Induction of apoptosis in RIP3shRNA transfected mouse 3T3SA cells co-transfected with shRNA-resistant RIP3 D161N mutant pre-tranfected for 16 hrs followed by compound addition and measured after 18 hrs in presence of zVAD by Cell Titer-Glo luminescent cell viability assay; type: toxicity, cell-based
3T3SA [20] = experiment: Induction of apoptosis in vICA expression plasmid transfected mouse 3T3SA cells co-transfected with shRNA-resistant empty vector incubated for 12 hrs by Cell Titer-Glo luminescent cell viability assay; type: toxicity, cell-based
3T3SA [21] = experiment: Induction of apoptosis in vICA expression plasmid transfected mouse 3T3SA cells co-transfected with shRNA-resistant RIP3 incubated for 12 hrs by Cell Titer-Glo luminescent cell viability assay; type: toxicity, cell-based
3T3SA [22] = experiment: Induction of apoptosis in vICA expression plasmid transfected mouse 3T3SA cells co-transfected with shRNA-resistant RIP3 D161G mutant incubated for 12 hrs by Cell Titer-Glo luminescent cell viability assay; type: toxicity, cell-based
3T3SA [23] = experiment: Induction of apoptosis in vICA expression plasmid transfected mouse 3T3SA cells co-transfected with shRNA-resistant RIP3 mutRHIM incubated for 12 hrs by Cell Titer-Glo luminescent cell viability assay; type: toxicity, cell-based
3T3SA [24] = experiment: Induction of apoptosis in mouse 3T3SA cells in presence of vIRA by Cell Titer-Glo luminescent cell viability assay; type: toxicity, cell-based
MEF [25] = experiment: Induction of apoptosis in RIP3-/- MEF cells expressing dox-induced wildtype RIP3 assessed as RIP1-RPI3 association incubated for 1 hrs by immunoblot analysis; type: toxicity, cell-based; settings: mouse
3T3SA [26] = experiment: Induction of apoptosis in RIP3 shRNA transfected mouse 3T3SA cells co-transfected with shRNA resistant RIP3 K51A mutant assessed as accumulation of RIP3 K51A mutant in pellet incubated for 3 hrs in presence of zVAD by immunoblot analysis; type: toxicity, cell-based
3T3SA [27] = experiment: Induction of apoptosis in RIP3 shRNA transfected mouse 3T3SA cells co-transfected with shRNA resistant RIP3 D143N mutant assessed as accumulation of FLAG-tagged RIP3 D143N mutant in pellet incubated for 3 hrs in presence of zVAD by immunoblot analysis; type: toxicity, cell-based
[28] = target: Serine/threonine-protein kinase tousled-like 2 (Homo sapiens) (UniProt Q86UE8); experiment: Inhibition of human TLK2 using casein as substrate at 1 uM in presence of 32P-ATP by Hotspot assay relative to control; values are per cent of control
Chain of Serine/threonine-protein kinase tousled-like 2 (Homo sapiens) (Q86UE8 whole entry, looked up): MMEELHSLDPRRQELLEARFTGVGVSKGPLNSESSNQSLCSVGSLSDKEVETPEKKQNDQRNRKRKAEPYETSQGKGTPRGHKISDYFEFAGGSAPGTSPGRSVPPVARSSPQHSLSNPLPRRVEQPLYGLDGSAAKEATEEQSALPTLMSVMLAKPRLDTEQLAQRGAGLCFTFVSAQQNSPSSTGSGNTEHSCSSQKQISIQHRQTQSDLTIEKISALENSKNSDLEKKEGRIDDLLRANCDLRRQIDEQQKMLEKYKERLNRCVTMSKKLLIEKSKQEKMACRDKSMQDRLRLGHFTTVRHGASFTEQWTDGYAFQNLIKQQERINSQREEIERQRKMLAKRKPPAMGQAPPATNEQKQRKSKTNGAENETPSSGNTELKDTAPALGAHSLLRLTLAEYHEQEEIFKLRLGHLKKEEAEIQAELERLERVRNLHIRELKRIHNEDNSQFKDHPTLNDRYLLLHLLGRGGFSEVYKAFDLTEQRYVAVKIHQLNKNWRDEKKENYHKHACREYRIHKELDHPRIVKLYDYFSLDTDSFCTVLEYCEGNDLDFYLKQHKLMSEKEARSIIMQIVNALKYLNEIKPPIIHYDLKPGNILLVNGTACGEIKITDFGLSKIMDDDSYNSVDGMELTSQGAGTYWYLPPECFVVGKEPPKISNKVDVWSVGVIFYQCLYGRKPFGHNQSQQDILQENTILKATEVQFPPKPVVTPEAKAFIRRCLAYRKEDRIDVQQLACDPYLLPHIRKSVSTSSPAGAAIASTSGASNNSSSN

[29] = target: Ephrin type-A receptor 6 (Homo sapiens) (UniProt Q9UF33); experiment: Inhibition of human EPHA6 using poly[Glu:Tyr] (4:1) as substrate at 1 uM in presence of 32P-ATP by Hotspot assay relative to control; values are per cent of control
Chain of Ephrin type-A receptor 6 (Homo sapiens) (Q9UF33 whole entry): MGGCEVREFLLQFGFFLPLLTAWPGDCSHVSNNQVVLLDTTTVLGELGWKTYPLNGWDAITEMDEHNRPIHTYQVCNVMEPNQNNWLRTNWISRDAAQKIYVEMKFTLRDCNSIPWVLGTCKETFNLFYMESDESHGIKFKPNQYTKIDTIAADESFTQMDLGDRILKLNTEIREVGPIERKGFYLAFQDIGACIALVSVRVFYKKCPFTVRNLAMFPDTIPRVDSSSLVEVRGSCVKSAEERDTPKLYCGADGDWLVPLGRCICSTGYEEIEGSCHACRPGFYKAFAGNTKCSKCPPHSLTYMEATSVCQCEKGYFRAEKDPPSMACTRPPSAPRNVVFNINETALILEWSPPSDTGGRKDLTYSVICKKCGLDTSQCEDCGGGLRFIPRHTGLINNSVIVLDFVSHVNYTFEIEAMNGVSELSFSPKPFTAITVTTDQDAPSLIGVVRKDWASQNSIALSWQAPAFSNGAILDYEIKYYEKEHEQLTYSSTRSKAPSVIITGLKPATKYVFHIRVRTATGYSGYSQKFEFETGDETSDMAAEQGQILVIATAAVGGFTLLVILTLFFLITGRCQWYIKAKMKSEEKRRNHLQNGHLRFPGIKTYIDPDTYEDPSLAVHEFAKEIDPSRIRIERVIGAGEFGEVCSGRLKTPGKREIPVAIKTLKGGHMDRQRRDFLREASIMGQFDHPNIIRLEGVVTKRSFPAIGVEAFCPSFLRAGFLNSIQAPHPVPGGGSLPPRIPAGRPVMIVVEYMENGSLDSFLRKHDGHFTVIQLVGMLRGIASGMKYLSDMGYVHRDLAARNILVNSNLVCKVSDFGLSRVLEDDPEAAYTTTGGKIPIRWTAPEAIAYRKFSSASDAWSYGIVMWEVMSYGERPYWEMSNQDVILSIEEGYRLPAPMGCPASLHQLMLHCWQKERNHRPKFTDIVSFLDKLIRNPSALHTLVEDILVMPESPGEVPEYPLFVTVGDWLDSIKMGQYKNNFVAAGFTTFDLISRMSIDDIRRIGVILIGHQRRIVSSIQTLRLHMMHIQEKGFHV

[30] = target: MAP kinase-interacting serine/threonine-protein kinase 1 (Homo sapiens) (UniProt Q9BUB5); experiment: Inhibition of human MNK1 using myelin basic protein as substrate at 1 uM in presence of 32P-ATP by Hotspot assay relative to control; values are per cent of control
Chain of MAP kinase-interacting serine/threonine-protein kinase 1 (Homo sapiens) (Q9BUB5 whole entry, looked up): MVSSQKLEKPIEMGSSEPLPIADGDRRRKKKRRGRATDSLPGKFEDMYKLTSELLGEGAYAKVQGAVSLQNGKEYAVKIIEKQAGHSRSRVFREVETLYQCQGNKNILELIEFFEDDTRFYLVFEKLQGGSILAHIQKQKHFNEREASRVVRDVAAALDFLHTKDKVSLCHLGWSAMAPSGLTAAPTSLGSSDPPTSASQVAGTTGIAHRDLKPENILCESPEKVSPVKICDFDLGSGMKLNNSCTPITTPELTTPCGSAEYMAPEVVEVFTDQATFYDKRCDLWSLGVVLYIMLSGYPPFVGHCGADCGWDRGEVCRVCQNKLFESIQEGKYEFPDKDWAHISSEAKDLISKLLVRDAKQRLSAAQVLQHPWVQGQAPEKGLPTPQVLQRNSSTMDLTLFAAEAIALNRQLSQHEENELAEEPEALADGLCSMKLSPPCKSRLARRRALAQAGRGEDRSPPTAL

[31] = target: Serine/threonine-protein kinase ULK1 (Homo sapiens) (UniProt O75385); experiment: Inhibition of human ULK1 using myelin basic protein as substrate at 1 uM in presence of 32P-ATP by Hotspot assay relative to control; values are per cent of control
Chain of Serine/threonine-protein kinase ULK1 (Homo sapiens) (O75385 whole entry): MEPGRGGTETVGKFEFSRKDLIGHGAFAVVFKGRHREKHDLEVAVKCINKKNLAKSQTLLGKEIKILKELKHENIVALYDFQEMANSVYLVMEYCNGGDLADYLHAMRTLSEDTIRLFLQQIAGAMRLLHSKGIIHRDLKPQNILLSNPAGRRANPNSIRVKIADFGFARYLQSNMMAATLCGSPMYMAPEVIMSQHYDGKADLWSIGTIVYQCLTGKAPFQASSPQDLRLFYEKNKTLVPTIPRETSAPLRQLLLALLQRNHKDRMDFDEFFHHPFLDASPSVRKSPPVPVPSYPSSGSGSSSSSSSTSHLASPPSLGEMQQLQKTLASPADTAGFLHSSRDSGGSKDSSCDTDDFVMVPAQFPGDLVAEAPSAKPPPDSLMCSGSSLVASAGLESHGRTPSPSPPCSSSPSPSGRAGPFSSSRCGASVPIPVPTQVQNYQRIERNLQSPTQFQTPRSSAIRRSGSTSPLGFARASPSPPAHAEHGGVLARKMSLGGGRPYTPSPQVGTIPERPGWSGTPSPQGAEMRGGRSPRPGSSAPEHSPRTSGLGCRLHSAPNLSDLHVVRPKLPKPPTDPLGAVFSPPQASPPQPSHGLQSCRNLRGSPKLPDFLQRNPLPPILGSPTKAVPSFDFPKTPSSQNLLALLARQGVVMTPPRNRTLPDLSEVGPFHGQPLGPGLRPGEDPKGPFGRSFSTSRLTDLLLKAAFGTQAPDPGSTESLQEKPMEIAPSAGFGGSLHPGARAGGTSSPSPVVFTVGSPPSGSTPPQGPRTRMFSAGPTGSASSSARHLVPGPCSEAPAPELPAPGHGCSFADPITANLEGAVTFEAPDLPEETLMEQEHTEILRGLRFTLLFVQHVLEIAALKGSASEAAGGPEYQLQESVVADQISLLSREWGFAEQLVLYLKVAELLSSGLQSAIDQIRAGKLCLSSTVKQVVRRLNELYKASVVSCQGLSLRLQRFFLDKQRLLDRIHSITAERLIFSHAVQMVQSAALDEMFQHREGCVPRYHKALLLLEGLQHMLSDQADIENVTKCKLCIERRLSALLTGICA

Compound: CC(C)S(=O)(=O)c1ccc2nccc(Nc3ccc4scnc4c3)c2c1
- inhibition (L929 [1]): Active
- inhibition (SVEC4-10 [2]): inactive
- inhibition (SVEC4-10 [3]): Active
- Activity (3T3SA [4]): 62%
- Activity (3T3SA [5]): 11%
- Activity (3T3SA [6]): 12.1%
- Activity (3T3SA [7]): Non-Toxic
- Activity (L929 [8]): Non-Toxic
- Activity (MEF [9]): Non-Toxic
- Activity (3T3SA [10]): Toxic
- Activity (3T3SA [11]): Toxic
- inhibition (3T3SA [12]): Active
- inhibition (MEF [13]): Active
- Activity (MEF [14]): Non-Toxic
- Activity (MEF [15]): Non-Toxic
- Activity (MEF [16]): Toxic
- Activity (SVEC4-10 [17]): Toxic
- Activity (3T3SA [18]): Non-Toxic
- Activity (3T3SA [19]): Non-Toxic
- Activity (3T3SA [20]): Non-Toxic
- Activity (3T3SA [21]): Non-Toxic
- Activity (3T3SA [22]): Non-Toxic
- Activity (3T3SA [23]): Non-Toxic
- Activity (3T3SA [24]): Non-Toxic
- Activity (MEF [25]): Toxic
- Activity (3T3SA [26]): Toxic
- Activity (3T3SA [27]): Toxic

Compound: CNC(=O)c1ccc2c(c1)ncn2-c1ccc(CC(=O)OC(C)(C)C)cc1
- residual activity [28]: 94.4%
- residual activity [29]: 88.9%
- residual activity [30]: 99.7%
- residual activity [31]: 104%
